# The source made the active and inactive calls. No rule for the calls is given here.
# Test system: rodent lifetime carcinogenesis bioassay, tumor incidence TD50
# Assay: carcinogenic potency in animals, long-term in vivo studies, CPDB compilation (AID 1745844)
# [1] = rat, strain Osborne-Mendel, females, in feed, site: any site (literature study), lesion: malignant tumor, dosed 104 weeks, study length 104 weeks
# [2] = rat, strain Osborne-Mendel, females, in feed, site: liver, lesion: one or several types, types not named, dosed 104 weeks, study length 104 weeks
# [3] = rat, strain Osborne-Mendel, males, in feed, site: any site (literature study), lesion: malignant tumor, dosed 104 weeks, study length 104 weeks
smiles,measurement,setting,value
CCN(Cc1cccc(S(=O)(=O)O)c1)c1ccc(C(=C2C=CC(=[N+](CC)Cc3cccc(S(=O)(=O)O)c3)C=C2)c2ccc(O)cc2S(=O)(=O)[O-])cc1,carcinogen call,"mouse, strain C3HeB/FeJ, females, in feed, site: any site (literature study), lesion: malignant tumor, dosed 104 weeks, study length 104 weeks",negative (inactive)
same,carcinogen call,"mouse, strain C3HeB/FeJ, females, in feed, site: any site (literature study), lesion: several types, types named in the paper, dosed 104 weeks, study length 104 weeks",negative (inactive)
same,carcinogen call,"mouse, strain C3HeB/FeJ, females, in feed, site: liver, lesion: hepatocellular adenoma, dosed 104 weeks, study length 104 weeks",negative (inactive)
same,TD50,"mouse, strain C3HeB/FeJ, females, in feed, site: lung, lesion: adenoma, dosed 104 weeks, study length 104 weeks",133000 mg/kg/day (inactive)
same,carcinogen call,"mouse, strain C3HeB/FeJ, males, in feed, site: any site (literature study), lesion: malignant tumor, dosed 104 weeks, study length 104 weeks",negative (inactive)
same,TD50,"mouse, strain C3HeB/FeJ, males, in feed, site: any site (literature study), lesion: several types, types named in the paper, dosed 104 weeks, study length 104 weeks",18100 mg/kg/day (inactive)
same,carcinogen call,"mouse, strain C3HeB/FeJ, males, in feed, site: lung, lesion: adenoma, dosed 104 weeks, study length 104 weeks",negative (inactive)
same,TD50,[1],46700 mg/kg/day (inactive)
same,TD50,"rat, strain Osborne-Mendel, females, in feed, site: any site (literature study), lesion: several types, types named in the paper, dosed 104 weeks, study length 104 weeks",18500 mg/kg/day (inactive)
same,carcinogen call,[2],negative (inactive)
same,carcinogen call,"rat, strain Osborne-Mendel, females, in feed, site: mammary gland, lesion: fibroadenoma, dosed 104 weeks, study length 104 weeks",negative (inactive)
same,carcinogen call,[3],negative (inactive)
same,carcinogen call,"rat, strain Osborne-Mendel, males, in feed, site: any site (literature study), lesion: several types, types named in the paper, dosed 104 weeks, study length 104 weeks",negative (inactive)
same,carcinogen call,"rat, strain Osborne-Mendel, males, in feed, site: liver, lesion: hepatocellular adenoma, dosed 104 weeks, study length 104 weeks",negative (inactive)
CN(C)CCOc1ccc(/C(=C(/CCCl)c2ccccc2)c2ccccc2)cc1,carcinogen call,"rat, strain Charles River CD (Sprague-Dawley), females, by gavage, site: liver, lesion: hepatocellular adenoma, dosed 52 weeks, study length 52 weeks",negative (inactive)
same,carcinogen call,"rat, strain Charles River CD (Sprague-Dawley), females, by gavage, site: liver, lesion: hepatocellular adenoma, dosed 52 weeks, study length 65 weeks",negative (inactive)
same,carcinogen call,"rat, strain Charles River CD (Sprague-Dawley), females, by gavage, site: liver, lesion: hepatocellular carcinoma, dosed 52 weeks, study length 52 weeks",negative (inactive)
same,carcinogen call,"rat, strain Charles River CD (Sprague-Dawley), females, by gavage, site: liver, lesion: hepatocellular carcinoma, dosed 52 weeks, study length 65 weeks",negative (inactive)
same,carcinogen call,"rat, strain Sprague-Dawley, females, by gavage, site: liver, lesion: one or several types, types not named, dosed 52 weeks, study length 52 weeks",negative (inactive)
same,carcinogen call,"rat, strain Sprague-Dawley, females, by gavage, site: liver, lesion: one or several types, types not named, dosed 52 weeks, study length 65 weeks",negative (inactive)
same,carcinogen call,"rat, strain Sprague-Dawley, females, by gavage, site: liver, lesion: several types, types named in the paper, dosed 52 weeks, study length 52 weeks",negative (inactive)
same,carcinogen call,"rat, strain Sprague-Dawley, females, by gavage, site: liver, lesion: several types, types named in the paper, dosed 52 weeks, study length 65 weeks",negative (inactive)
same,TD50,"rat, strain Sprague-Dawley, females, in feed, site: liver, lesion: hepatocellular adenoma, dosed 104 weeks, study length 104 weeks",344 mg/kg/day (inactive)
same,carcinogen call,"rat, strain Sprague-Dawley, females, in feed, site: liver, lesion: hepatocellular carcinoma, dosed 104 weeks, study length 104 weeks",negative (inactive)
same,carcinogen call,"rat, strain Sprague-Dawley, females, in feed, site: mammary gland, lesion: one or several types, types not named, dosed 104 weeks, study length 104 weeks",negative (inactive)
same,carcinogen call,"rat, strain Sprague-Dawley, females, in feed, site: pituitary gland, lesion: one or several types, types not named, dosed 104 weeks, study length 104 weeks",negative (inactive)
same,carcinogen call,"rat, strain Sprague-Dawley, males, in feed, site: liver, lesion: hepatocellular adenoma, dosed 104 weeks, study length 104 weeks",negative (inactive)
same,TD50,"rat, strain Sprague-Dawley, males, in feed, site: liver, lesion: hepatocellular carcinoma, dosed 104 weeks, study length 104 weeks",1040 mg/kg/day (inactive)
same,carcinogen call,"rat, strain Sprague-Dawley, males, in feed, site: mammary gland, lesion: one or several types, types not named, dosed 104 weeks, study length 104 weeks",negative (inactive)
same,carcinogen call,"rat, strain Sprague-Dawley, males, in feed, site: pituitary gland, lesion: one or several types, types not named, dosed 104 weeks, study length 104 weeks",negative (inactive)
same,carcinogen call,"rat, strain Sprague-Dawley, males, in feed, site: testis, lesion: one or several types, types not named, dosed 104 weeks, study length 104 weeks",negative (inactive)
NC(N)=S,carcinogen call,"rat, strain Fischer 344, males, i.p., site: liver, lesion: one or several types, types not named, dosed 60 weeks, study length 60 weeks",negative (inactive)
same,TD50,"rat, strain Hebrew University, males, in drinking water, site: any site (literature study), lesion: several types, types named in the paper, dosed 113 weeks, study length 113 weeks",27.5 mg/kg/day
same,TD50,"rat, strain Hebrew University, males, in drinking water, site: auricular region, lesion: epidermoid carcinoma, dosed 113 weeks, study length 113 weeks",93.5 mg/kg/day
same,TD50,"rat, strain Hebrew University, males, in drinking water, site: eyelid, lesion: epidermoid carcinoma, dosed 113 weeks, study length 113 weeks",93.5 mg/kg/day
same,TD50,"rat, strain Hebrew University, males, several routes, site: any site (literature study), lesion: several types, types named in the paper, dosed 95 weeks, study length 95 weeks",50.8 mg/kg/day
same,TD50,"rat, strain Hebrew University, males, several routes, site: auricular region, lesion: epidermoid carcinoma, dosed 95 weeks, study length 95 weeks",104 mg/kg/day
same,TD50,"rat, strain Hebrew University, males, several routes, site: eyelid, lesion: epidermoid carcinoma, dosed 95 weeks, study length 95 weeks",225 mg/kg/day
same,TD50,"rat, strain Osborne-Mendel, females, in feed, site: any site (literature study), lesion: benign tumor, dosed 104 weeks, study length 104 weeks",15 mg/kg/day (inactive)
same,carcinogen call,[1],negative (inactive)
same,TD50,"rat, strain Osborne-Mendel, females, in feed, site: any site (literature study), lesion: several types, types named in the paper, dosed 113 weeks, study length 113 weeks",16.2 mg/kg/day (inactive)
same,carcinogen call,[2],negative (inactive)
same,carcinogen call,"rat, strain Osborne-Mendel, females, in feed, site: liver, lesion: one or several types, types not named, dosed 113 weeks, study length 113 weeks",negative (inactive)
same,TD50,"rat, strain Osborne-Mendel, males, in feed, site: any site (literature study), lesion: benign tumor, dosed 104 weeks, study length 104 weeks",64.7 mg/kg/day (inactive)
same,carcinogen call,[3],negative (inactive)
same,TD50,"rat, strain Osborne-Mendel, males, in feed, site: any site (literature study), lesion: several types, types named in the paper, dosed 113 weeks, study length 113 weeks",46.1 mg/kg/day (inactive)
same,carcinogen call,"rat, strain Osborne-Mendel, males, in feed, site: liver, lesion: one or several types, types not named, dosed 104 weeks, study length 104 weeks",negative (inactive)
same,carcinogen call,"rat, strain Osborne-Mendel, males, in feed, site: liver, lesion: one or several types, types not named, dosed 113 weeks, study length 113 weeks",negative (inactive)
CN(CCCC(=O)c1cccnc1)N=O,TD50,"hamster, strain Syrian Golden, females, in drinking water, site: liver, lesion: hepatocellular carcinoma, dosed 87 weeks, study length 87 weeks",5.13 mg/kg/day (inactive)
same,carcinogen call,"hamster, strain Syrian Golden, females, in drinking water, site: lung, lesion: several types, types named in the paper, dosed 87 weeks, study length 87 weeks",negative (inactive)
same,carcinogen call,"hamster, strain Syrian Golden, females, in drinking water, site: pancreas, lesion: adenocarcinoma, dosed 87 weeks, study length 87 weeks",negative (inactive)
same,carcinogen call,"hamster, strain Syrian Golden, females, in drinking water, site: pancreatic islets, lesion: islet-cell adenoma, dosed 87 weeks, study length 87 weeks",negative (inactive)
same,TD50,"rat, strain Fischer 344, males, in drinking water, site: all sites, lesion: several types, types named in the paper, dosed 118 weeks, study length 128 weeks",0.14 mg/kg/day
same,TD50,"rat, strain Fischer 344, males, in drinking water, site: liver, lesion: adenoma, dosed 118 weeks, study length 128 weeks",0.871 mg/kg/day
same,TD50,"rat, strain Fischer 344, males, in drinking water, site: liver, lesion: hepatoma, dosed 118 weeks, study length 128 weeks",2.74 mg/kg/day
same,TD50,"rat, strain Fischer 344, males, in drinking water, site: liver, lesion: several types, types named in the paper, dosed 111 weeks, study length 111 weeks",2.97 mg/kg/day
same,TD50,"rat, strain Fischer 344, males, in drinking water, site: liver, lesion: several types, types named in the paper, dosed 118 weeks, study length 128 weeks",0.651 mg/kg/day
same,TD50,"rat, strain Fischer 344, males, in drinking water, site: lung, lesion: adenocarcinoma, dosed 111 weeks, study length 111 weeks",0.148 mg/kg/day
same,TD50,"rat, strain Fischer 344, males, in drinking water, site: lung, lesion: adenocarcinoma, dosed 118 weeks, study length 128 weeks",0.672 mg/kg/day
same,TD50,"rat, strain Fischer 344, males, in drinking water, site: lung, lesion: adenoma, dosed 111 weeks, study length 111 weeks",0.279 mg/kg/day
same,TD50,"rat, strain Fischer 344, males, in drinking water, site: lung, lesion: adenoma, dosed 118 weeks, study length 128 weeks",0.343 mg/kg/day
same,TD50,"rat, strain Fischer 344, males, in drinking water, site: lung, lesion: adenosquamous carcinoma, dosed 118 weeks, study length 128 weeks",1.46 mg/kg/day
same,TD50,"rat, strain Fischer 344, males, in drinking water, site: lung, lesion: several types, types named in the paper, dosed 111 weeks, study length 111 weeks",0.0688 mg/kg/day
same,TD50,"rat, strain Fischer 344, males, in drinking water, site: lung, lesion: several types, types named in the paper, dosed 118 weeks, study length 128 weeks",0.182 mg/kg/day
same,TD50,"rat, strain Fischer 344, males, in drinking water, site: lung, lesion: squamous-cell carcinoma, dosed 118 weeks, study length 128 weeks",3.4 mg/kg/day
same,TD50,"rat, strain Fischer 344, males, in drinking water, site: nasal cavity, lesion: several types, types named in the paper, dosed 118 weeks, study length 128 weeks",1.66 mg/kg/day
same,TD50,"rat, strain Fischer 344, males, in drinking water, site: pancreas, exocrine, lesion: acinar-cell adenoma, dosed 118 weeks, study length 128 weeks",29.2 mg/kg/day
same,TD50,"rat, strain Fischer 344, males, in drinking water, site: pancreas, exocrine, lesion: adenocarcinoma, acinar or ductal, dosed 118 weeks, study length 128 weeks",6.93 mg/kg/day
same,TD50,"rat, strain Fischer 344, males, in drinking water, site: pancreas, exocrine, lesion: malignant tumor, dosed 111 weeks, study length 111 weeks",0.975 mg/kg/day
same,TD50,"rat, strain Fischer 344, males, in drinking water, site: pancreas, exocrine, lesion: several types, types named in the paper, dosed 118 weeks, study length 128 weeks",0.49 mg/kg/day
